Here are results for 30 molecules from patent publication US10738056B2 (Aduro BioTech, Inc., priority 2017, dated 2020).

Sequence of Human cGAS amino acids 155-522 (Q8N884 157-522): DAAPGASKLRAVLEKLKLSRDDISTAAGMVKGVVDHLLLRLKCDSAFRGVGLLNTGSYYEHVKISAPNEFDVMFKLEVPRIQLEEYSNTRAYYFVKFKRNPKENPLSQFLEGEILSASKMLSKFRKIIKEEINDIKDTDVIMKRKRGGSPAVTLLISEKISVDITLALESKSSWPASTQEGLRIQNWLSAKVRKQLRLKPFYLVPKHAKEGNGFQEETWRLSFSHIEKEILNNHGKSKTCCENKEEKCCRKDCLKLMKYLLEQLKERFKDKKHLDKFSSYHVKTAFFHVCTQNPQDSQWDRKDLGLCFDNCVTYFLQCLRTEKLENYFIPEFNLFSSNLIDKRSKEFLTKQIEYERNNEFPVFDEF

The assay concerns the target Human cGAS amino acids 155-522 (Homo sapiens (Human), UniProt Q8N884). Description: cGAS biochemical activity assay (ATP remaining, Kinase-Glo Max luminescence). The following applies: human cGAS 155-522, ATP remaining (Kinase-Glo Max); read-out: cGAS IC50. A general note: In Kinase-Glo more light means more ATP remaining.
Broadly, the IC50 is the concentration at which inhibition is half-maximal. As for `COC1CCCCC1NC(=O)c1c(C)[nH]c2c(-c3ccccc3)c(C(F)(F)F)nn2c1=O` (single isomer, unassigned) [Compound A1085, N-(2-methoxycyclohexyl)-5-methyl-7-oxo-3-phenyl-2-(trifluoromethyl)-4,7-dihydropyrazolo[1,5-a]pyrimidine-6-carboxamide], the IC50 lay within 20 to 250 µM. As for `COc1cccc2oc(-c3c(C4CCC(C(=O)O)CC4)[nH]c4c(-c5ccccc5)c(C(F)(F)F)nn4c3=O)nc12` (single isomer, unassigned) [Compound C1237, 4-(6-(4-methoxybenzo[d]oxazol-2-yl)-7-oxo-3-phenyl-2-(trifluoromethyl)-4,7-dihydropyrazolo[1,5-a]pyrimidin-5-yl)cyclohexane-1-carboxylic acid], the IC50 fell in the range of 20 to 250 µM. Then `COc1cccc2oc(-c3c(C4CCC(C(=O)O)CC4)[nH]c4c(-c5ccccc5)c(C(F)(F)F)nn4c3=O)nc12` (single isomer, unassigned) [Compound C1238, 4-(6-(4-methoxybenzo[d]oxazol-2-yl)-7-oxo-3-phenyl-2-(trifluoromethyl)-4,7-dihydropyrazolo[1,5-a]pyrimidin-5-yl)cyclohexane-1-carboxylic acid], with 20 to 250 µM; and `COc1ccc(NC(=O)c2c(C)[nH]c3c(-c4ccccc4)c(C(F)(F)F)nn3c2=O)cc1` [Compound A1001, N-(4-methoxyphenyl)-5-methyl-7-oxo-3-phenyl-2-(trifluoromethyl)-4,7-dihydropyrazolo[1,5-a]pyrimidine-6-carboxamide], with 20 to 250 µM. In the case of `Cc1[nH]c2c(-c3ccccc3)c(C(F)(F)F)nn2c(=O)c1C(=O)N1CCN(c2ccccc2)CC1` [Compound A1003, 5-methyl-3-phenyl-6-(4-phenylpiperazine-1-carbonyl)-2-(trifluoromethyl)pyrazolo[1,5-a]pyrimidin-7(4H)-one], the IC50 is greater than 250 µM. Then `Cc1[nH]c2c(-c3ccccc3)c(C(F)(F)F)nn2c(=O)c1C(=O)N1CCOCC1` [Compound A1004, 5-methyl-6-(morpholine-4-carbonyl)-3-phenyl-2-(trifluoromethyl)pyrazolo[1,5-a]pyrimidin-7(4H)-one], with greater than 250 µM; and `Cc1[nH]c2c(-c3ccccc3)c(C(F)(F)F)nn2c(=O)c1C(=O)Nc1cccnc1` [Compound A1005, 5-methyl-7-oxo-3-phenyl-N-(pyridin-3-yl)-2-(trifluoromethyl)-4,7-dihydropyrazolo[1,5-a]pyrimidine-6-carboxamide], with 20 to 250 µM.

With `Cc1[nH]c2c(-c3ccccc3)c(C(F)(F)F)nn2c(=O)c1C(=O)Nc1ccc(C(F)(F)F)cc1` [Compound A1007, 5-methyl-7-oxo-3-phenyl-2-(trifluoromethyl)-N-(4-(trifluoromethyl)phenyl)-4,7-dihydropyrazolo[1,5-a]pyrimidine-6-carboxamide], the IC50 was in the range of 20 to 250 µM. Regarding `Cc1[nH]c2c(-c3ccccc3)c(C(F)(F)F)nn2c(=O)c1C(=O)NC1CCCC1` [Compound A1008, N-cyclopentyl-5-methyl-7-oxo-3-phenyl-2-(trifluoromethyl)-4,7-dihydropyrazolo[1,5-a]pyrimidine-6-carboxamide], the IC50 was 20 to 250 µM.

With `Cc1[nH]c2c(-c3ccccc3)c(C(F)(F)F)nn2c(=O)c1C(=O)N1CCCC1` [Compound A1009, 5-methyl-3-phenyl-6-(pyrrolidine-1-carbonyl)-2-(trifluoromethyl)pyrazolo[1,5-a]pyrimidin-7(4H)-one], the IC50 is greater than 250 µM.

With `Cc1[nH]c2c(-c3ccccc3)c(C(F)(F)F)nn2c(=O)c1C(=O)NC1CCCCC1` [Compound A1010, N-cyclohexyl-5-methyl-7-oxo-3-phenyl-2-(trifluoromethyl)-4,7-dihydropyrazolo[1,5-a]pyrimidine-6-carboxamide], the IC50 fell in the range of 20 to 250 µM. For the molecule `Cc1[nH]c2c(-c3ccccc3)c(C(F)(F)F)nn2c(=O)c1C(=O)N1CCCCC1` [Compound A1011, 5-methyl-3-phenyl-6-(piperidine-1-carbonyl)-2-(trifluoromethyl)pyrazolo[1,5-a]pyrimidin-7(4H)-one], the IC50 was greater than 250 µM. Regarding `Cc1ccc(NC(=O)c2c(C)[nH]c3c(-c4ccccc4)c(C(F)(F)F)nn3c2=O)cc1` [Compound A1012, 5-methyl-7-oxo-3-phenyl-N-(p-tolyl)-2-(trifluoromethyl)-4,7-dihydropyrazolo[1,5-a]pyrimidine-6-carboxamide], the IC50 lay in the range of 20 to 250 µM.

With `CN(Cc1ccccc1)C(=O)c1c[nH]c2c(-c3ccccc3)c(C(F)(F)F)nn2c1=O` [Compound A1013, N-benzyl-N-methyl-7-oxo-3-phenyl-2-(trifluoromethyl)-4,7-dihydropyrazolo[1,5-a]pyrimidine-6-carboxamide], the IC50 was greater than 250 µM.

On to `Cc1[nH]c2c(-c3ccccc3)c(C(F)(F)F)nn2c(=O)c1C(=O)N[C@@H]1CCCC[C@H]1N` [Compound A1014, N-((1R,2R)-2-aminocyclohexyl)-5-methyl-7-oxo-3-phenyl-2-(trifluoromethyl)-4,7-dihydropyrazolo[1,5-a]pyrimidine-6-carboxamide], for which the IC50 was 20 to 250 µM. `Cc1[nH]c2c(-c3ccccc3)c(C(F)(F)F)nn2c(=O)c1C(=O)Nc1ccc(C#N)cc1` [Compound A1015, N-(4-cyanophenyl)-5-methyl-7-oxo-3-phenyl-2-(trifluoromethyl)-4,7-dihydropyrazolo[1,5-a]pyrimidine-6-carboxamide]: the 50% inhibitory concentration (IC50) lay within 20 to 250 µM. Consider `Cc1[nH]c2c(-c3ccccc3)c(C(F)(F)F)nn2c(=O)c1C(=O)Nc1ccc(Cl)cc1` [Compound A1016, N-(4-chlorophenyl)-5-methyl-7-oxo-3-phenyl-2-(trifluoromethyl)-4,7-dihydropyrazolo[1,5-a]pyrimidine-6-carboxamide], for which the IC50 lay in the range of 20 to 250 µM.

Turning to `Cc1[nH]c2c(-c3ccccc3)c(C(F)(F)F)nn2c(=O)c1C(=O)Nc1ccccn1` [Compound A1017, 5-methyl-7-oxo-3-phenyl-N-(pyridin-2-yl)-2-(trifluoromethyl)-4,7-dihydropyrazolo[1,5-a]pyrimidine-6-carboxamide], the IC50 was less than 20 µM. Then `Cc1[nH]c2c(-c3ccccc3)c(C(F)(F)F)nn2c(=O)c1C(=O)Nc1ccnnc1` [Compound A1018, 5-methyl-7-oxo-3-phenyl-N-(pyridazin-4-yl)-2-(trifluoromethyl)-4,7-dihydropyrazolo[1,5-a]pyrimidine-6-carboxamide], with 20 to 250 µM; and `Cc1noc(C)c1NC(=O)c1c(C)[nH]c2c(-c3ccccc3)c(C(F)(F)F)nn2c1=O` [Compound A1019, N-(3,5-dimethylisoxazol-4-yl)-5-methyl-7-oxo-3-phenyl-2-(trifluoromethyl)-4,7-dihydropyrazolo[1,5-a]pyrimidine-6-carboxamide], with greater than 250 µM; and `Cc1[nH]c2c(-c3ccccc3)c(C(F)(F)F)nn2c(=O)c1C(=O)Nc1ccon1` [Compound A1020, N-(isoxazol-3-yl)-5-methyl-7-oxo-3-phenyl-2-(trifluoromethyl)-4,7-dihydropyrazolo[1,5-a]pyrimidine-6-carboxamide], with 20 to 250 µM. On to `CC(=O)Nc1ccccc1NC(=O)c1c(C)[nH]c2c(-c3ccccc3)c(C(F)(F)F)nn2c1=O` [Compound A1021, N-(2-acetamidophenyl)-5-methyl-7-oxo-3-phenyl-2-(trifluoromethyl)-4,7-dihydropyrazolo[1,5-a]pyrimidine-6-carboxamide], for which the half-maximal inhibitory concentration (IC50) is 20 to 250 µM. Turning to `Cc1[nH]c2c(-c3ccccc3)c(C(F)(F)F)nn2c(=O)c1C(=O)Nc1ccccc1NS(C)(=O)=O` [Compound A1022, 5-methyl-N-(2-(methylsulfonamido)phenyl)-7-oxo-3-phenyl-2-(trifluoromethyl)-4,7-dihydropyrazolo[1,5-a]pyrimidine-6-carboxamide], the half-maximal inhibitory concentration (IC50) is less than 20 µM.

Take `Cc1[nH]c2c(-c3ccccc3)c(C(F)(F)F)nn2c(=O)c1C(=O)Nc1cnccn1` [Compound A1024, 5-methyl-7-oxo-3-phenyl-N-(pyrazin-2-yl)-2-(trifluoromethyl)-4,7-dihydropyrazolo[1,5-a]pyrimidine-6-carboxamide]: the IC50 is less than 20 µM. Then `Cc1[nH]c2c(-c3ccccc3)c(C(F)(F)F)nn2c(=O)c1C(=O)NC1CCOCC1` [Compound A1025, 5-methyl-7-oxo-3-phenyl-N-(tetrahydro-2H-pyran-4-yl)-2-(trifluoromethyl)-4,7-dihydropyrazolo[1,5-a]pyrimidine-6-carboxamide], with 20 to 250 µM.

`Cc1[nH]c2c(-c3ccccc3)c(C(F)(F)F)nn2c(=O)c1C(=O)NC1CCN(C)CC1` [Compound A1026, 5-methyl-N-(1-methylpiperidin-4-yl)-7-oxo-3-phenyl-2-(trifluoromethyl)-4,7-dihydropyrazolo[1,5-a]pyrimidine-6-carboxamide]: the IC50 is 20 to 250 µM. Regarding `CC(=O)N1CCC(NC(=O)c2c(C)[nH]c3c(-c4ccccc4)c(C(F)(F)F)nn3c2=O)CC1` [Compound A1027, N-(1-acetylpiperidin-4-yl)-5-methyl-7-oxo-3-phenyl-2-(trifluoromethyl)-4,7-dihydropyrazolo[1,5-a]pyrimidine-6-carboxamide], the IC50 fell in the range of 20 to 250 µM. In the case of `Cc1[nH]c2c(-c3ccccc3)c(C(F)(F)F)nn2c(=O)c1C(=O)Nc1cccc(Cl)c1` [Compound A1030, N-(3-chlorophenyl)-5-methyl-7-oxo-3-phenyl-2-(trifluoromethyl)-4,7-dihydropyrazolo[1,5-a]pyrimidine-6-carboxamide], the IC50 was less than 20 µM.

On to `Cc1[nH]c2c(-c3ccccc3)c(C(F)(F)F)nn2c(=O)c1C(=O)N[C@H]1CCN(C(=O)OC(C)(C)C)C1` [Compound A1034, tert-butyl (S)-3-(5-methyl-7-oxo-3-phenyl-2-(trifluoromethyl)-4,7-dihydropyrazolo[1,5-a]pyrimidine-6-carboxamido)pyrrolidine-1-carboxylate], for which the IC50 was greater than 250 µM. Regarding `Cc1[nH]c2c(-c3ccccc3)c(C(F)(F)F)nn2c(=O)c1C(=O)N[C@H]1CCNC1` [Compound A1035, (S)-5-methyl-7-oxo-3-phenyl-N-(pyrrolidin-3-yl)-2-(trifluoromethyl)-4,7-dihydropyrazolo[1,5-a]pyrimidine-6-carboxamide], the IC50 is greater than 250 µM.
